Test systems include A549 NSCLC; IGROV1 ovarian; NCI-H522 lung; OVCAR-5 ovarian; OVCAR-8 ovarian; SK-OV-3 ovarian; SNB-19 CNS; SNB-75 CNS; U251 CNS.
What all share (experiment): DTP human tumour cell line panel, 48 h

Values joined by “and” are separate entries in the source; they are usually repeats but may differ in a detail not shown here. Equal entries are not always repeated.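 Interpolation was linear, between the two tested concentrations surrounding the appropriate level; five concentrations were tested over 48 hours in 96-well plates. At the GI50, growth is halved. Definition used: TGI = concentration required for complete inhibition of growth.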 A value given as a limit tells only on which side of the number the result lay.

For the compound `O=C(NOC(=O)c1ccc([N+](=O)[O-])cc1)c1ccc(Cl)cc1`, the TGI with A549 NSCLC was more than 100 µM; with IGROV1 ovarian, 59.4 µM; in the test on NCI-H522 lung, 82.2 µM; in the test with OVCAR-5 ovarian it was more than 100 µM; with OVCAR-8 ovarian, more than 100 µM; in the test with SK-OV-3 ovarian, more than 100 µM. In addition, the TGI is more than 100 µM in the test with SNB-19 CNS, 54.6 µM in the test on SNB-75 CNS and more than 100 µM in the test with U251 CNS.

Turning to `Nc1nc(Cl)cc(NCCCCCCNc2cc(Cl)nc(N)n2)n1`, the total growth inhibition concentration (TGI) with A549 NSCLC, in the test on IGROV1 ovarian, in the test on NCI-H522 lung, with OVCAR-5 ovarian, with OVCAR-8 ovarian and in the test with SK-OV-3 ovarian was more than 100 µM in each case. The TGI in the test with SNB-19 CNS, with SNB-75 CNS and in the test on U251 CNS was more than 100 µM throughout.

As for `Cc1cc(C)c2nccc(NCCCN(C)C)c2c1[N+](=O)[O-]`, the TGI with A549 NSCLC was more than 100 µM; with IGROV1 ovarian, 92.3 µM; in the test with NCI-H522 lung, 27.5 µM; in the test on OVCAR-5 ovarian, more than 100 µM; in the test on OVCAR-8 ovarian it was more than 100 µM; with SK-OV-3 ovarian, more than 100 µM. Further, the concentration for total growth inhibition (TGI) in the test on SNB-19 CNS, with SNB-75 CNS and in the test on U251 CNS was more than 100 µM each time.

For the compound `Cc1cc(N(CCC#N)CCC#N)ccc1/C=C/C(=O)Nc1ccccc1Cl`, the TGI with A549 NSCLC, with IGROV1 ovarian, with NCI-H522 lung, in the test with OVCAR-5 ovarian, in the test on OVCAR-8 ovarian and in the test with SK-OV-3 ovarian was more than 100 µM in each case. The TGI in the test on SNB-19 CNS, in the test on SNB-75 CNS and in the test on U251 CNS was more than 100 µM each time.

In the case of `CCCCOP1(=O)C=CC(Cl)=C(C)C1` (stereo not given), the concentration for total growth inhibition (TGI) in the test with A549 NSCLC was more than 100 µM; in the test with OVCAR-8 ovarian, 51.3 µM; with SNB-19 CNS, more than 100 µM; in the test with SNB-75 CNS, 49.6 µM.

Take `C=C(C[N+](C)(C)C)N/N=C/c1oc(-c2ccc(OC)c(OC)c2)c(-c2ccc(OC)c(OC)c2)c1[N+](=O)[O-]`: the TGI was more than 100 µM in the test with A549 NSCLC; 34.3 µM in the test on IGROV1 ovarian; 45.3 µM with NCI-H522 lung; 40.3 µM in the test on OVCAR-5 ovarian; 31.4 µM in the test on OVCAR-8 ovarian; 64.4 µM in the test with SK-OV-3 ovarian. Moreover, the TGI in the test on SNB-19 CNS was more than 100 µM; in the test on SNB-75 CNS, 78.2 µM; with U251 CNS, 40.2 µM.

`COc1cc(-c2nn3c(=O)n(-c4ccc(Cl)cc4)c(=O)nc3s2)cc(OC)c1OC`: the GI50 in the test on A549 NSCLC is more than 50 µM; with IGROV1 ovarian, more than 50 µM; in the test on NCI-H522 lung it was more than 50 µM; with SK-OV-3 ovarian, 33.5 µM; in the test with SNB-19 CNS, 37.4 µM; in the test with SNB-75 CNS, 17.2 µM. Besides, the TGI in the test with A549 NSCLC, with IGROV1 ovarian, in the test on NCI-H522 lung, with OVCAR-5 ovarian, with OVCAR-8 ovarian and with SK-OV-3 ovarian was more than 100 µM each time. Further, the TGI with SNB-19 CNS is 50 µM and 83.8 µM; with SNB-75 CNS, 43.1 µM and 21.1 µM; with U251 CNS, more than 69 µM.

For `O=C1[C@H]2ON(c3ccccc3)C(c3cccc([N+](=O)[O-])c3)[C@H]2C(=O)N1c1ccc(Cc2ccc(N3C(=O)[C@@H]4ON(c5ccccc5)C(c5cccc([N+](=O)[O-])c5)[C@@H]4C3=O)cc2)cc1` (stereo not given in full), the TGI in the test with A549 NSCLC, with IGROV1 ovarian, in the test on NCI-H522 lung, with OVCAR-5 ovarian, in the test on OVCAR-8 ovarian and with SK-OV-3 ovarian was more than 100 µM each time. Besides, the TGI in the test with SNB-19 CNS, in the test on SNB-75 CNS and in the test with U251 CNS was more than 100 µM each time.

Regarding `O=C(O)C(CS)N=Cc1nc(-c2ccccc2)oc1O` (stereo not given), the TGI with A549 NSCLC, with IGROV1 ovarian, with NCI-H522 lung, with OVCAR-5 ovarian, with OVCAR-8 ovarian and with SK-OV-3 ovarian was more than 100 µM in each case. For the same compound, the TGI in the test with SNB-19 CNS, with SNB-75 CNS and with U251 CNS was more than 100 µM in each case.

For `C=CCN(N=O)C(=O)ON1C(=O)CCC1=O`, the TGI in the test with A549 NSCLC, in the test on IGROV1 ovarian, in the test with NCI-H522 lung, with OVCAR-5 ovarian, in the test with OVCAR-8 ovarian and in the test with SK-OV-3 ovarian was more than 100 µM in each case. Moreover, the TGI in the test with SNB-19 CNS, in the test with SNB-75 CNS and in the test on U251 CNS was more than 100 µM in each case.

On to `COC(=O)C1=C(C(=O)OC)N(C(C)C)[C@H]2C(C(=O)OC)=C(C(=O)OC)N(C(C)C)[C@@H]12`, for which the TGI in the test on A549 NSCLC, with IGROV1 ovarian, in the test with NCI-H522 lung, in the test with OVCAR-5 ovarian, with OVCAR-8 ovarian and with SK-OV-3 ovarian was more than 100 µM throughout. For the same compound, the TGI with SNB-19 CNS, in the test on SNB-75 CNS and in the test on U251 CNS was more than 100 µM each time.

As to `CCCC/C=C1\CCC(CN2CCCC2)C1=O` (stereo not given), the TGI in the test with A549 NSCLC was found to be 40.3 µM; in the test on IGROV1 ovarian, 34.2 µM; with OVCAR-5 ovarian, 33.4 µM; in the test on OVCAR-8 ovarian, 28.5 µM; in the test with SK-OV-3 ovarian, 97.1 µM; in the test on SNB-19 CNS, 48.9 µM. The concentration for total growth inhibition (TGI) in the test on SNB-75 CNS was found to be 32.4 µM; with U251 CNS, 19.6 µM.

With `CC1(C)Oc2ccccc2N2O[C@@H]3C(=O)N(c4ccccc4)C(=O)[C@@H]3C21c1ccccc1` (stereo not given in full), the TGI with A549 NSCLC is 48.4 µM; with IGROV1 ovarian, more than 100 µM; in the test on NCI-H522 lung it was 93.2 µM; in the test on OVCAR-5 ovarian, more than 100 µM; with SK-OV-3 ovarian, 41 µM; in the test on SNB-19 CNS, 38.1 µM. The TGI is 35.3 µM in the test on SNB-75 CNS and 69.1 µM in the test on U251 CNS.

Take `CCC1(Cl)C(=O)NC(=O)N(C2CC(O)C(CO)O2)C1N=[N+]=[N-]` (stereo not given): the TGI in the test with A549 NSCLC, in the test with IGROV1 ovarian, with NCI-H522 lung, with OVCAR-5 ovarian, in the test with OVCAR-8 ovarian and in the test with SK-OV-3 ovarian was more than 100 µM in each case. In addition, the TGI in the test with SNB-19 CNS, with SNB-75 CNS and in the test on U251 CNS was more than 100 µM each time.

As usually defined, the TGI is the concentration giving total growth inhibition. A high value points to lower sensitivity of the cells. As usually defined, the GI50 is the concentration giving 50% growth inhibition.

The values above are taken from PubChem BioAssay (NCI).
